Laboratory results reported in patent US7279476B2, “Pyrazole-derived kinase inhibitors and uses thereof” (Vertex Pharmaceuticals Incorporated, priority 2001, dated 2007).

Columns and labels:
activated ERK2 = activated ERK2 (Homo sapiens, UniProt P28482); test: ERK2 inhibition spectrophotometric coupled-enzyme assay; format: biochemical; details: 10 nM activated ERK2, 65 μM ATP, 30° C., pH 7.5; read-out: ERK2 Inhibitory Activity (Ki class)
Description: Compounds are assayed for the inhibition of ERK2 by a spectrophotometric coupled-enzyme assay (Fox et al (1998) Protein Sci 7, 2249). In this assay, a fixed concentration of activated ERK2 (10 nM) is incubated with various concentrations of the compound in DMSO (2.5%) for 10 min. at 30° C. in 0.1 M HEPES buffer, pH 7.5, containing 10 mM MgCl2, 2.5 mM phosphoenolpyruvate, 200 μM NADH, 150 μg/mL pyruvate kinase, 50 μg/mL lactate dehydrogenase, and 200 μM erktide peptide. The reaction is initiated by the addition of 65 μM ATP. The rate of decrease of absorbance at 340 nm is monitored, which indicates the extent of uninhibited enzyme present in the assay. The IC50 is evaluated from the rate data as a function of inhibitor concentration.
The compound numbers correspond to the compound numbers in Tables 1 and 2.

AKT = AKT inhibition standard coupled enzyme assay; format: biochemical; details: screened at 30 μM compound, 45 nM AKT, 170 μM ATP; compounds with greater than 50% inhibition titrated
Description: Compounds were screened for their ability to inhibit AKT using a standard coupled enzyme assay (Fox et al., Protein Sci., (1998) 7, 2249). Assays were carried out in a mixture of 100 mM HEPES 7.5, 10 mM MgCl2, 25 mM NaCl, 1 mM DTT and 1.5% DMSO. Final substrate concentrations in the assay were 170 μM ATP (Sigma Chemicals) and 200 μM peptide (RPRAATF, American Peptide, Sunnyvale, Calif.). Assays were carried out at 30° C. and 45 nM AKT. Final concentrations of the components of the coupled enzyme system were 2.5 mM phosphoenolpyruvate, 300 μM NADH, 30 μg/ML pyruvate kinase and 10 μg/ml lactate dehydrogenase.
An assay stock buffer solution was prepared containing all of the reagents listed above, with the exception of AKT, DTT, and the test compound of interest. 56 μl of the stock solution was placed in a 384 well plate followed by addition of 1 μl of 2 mM DMSO stock containing the test compound (final compound concentration 30 μM). The plate was preincubated for about 10 minutes at 30° C. and the reaction initiated by addition of 10 μl of enzyme (final concentration 45 nM) and 1 mM DTT. Rates of reaction were obtained using a BioRad Ultramark plate reader (Hercules, Calif.) over a 5 minute read time at 30° C.

[1] = test system: Colon cancer cells (HT-29 cell line); test: ERK inhibition cell proliferation assay (3H-thymidine uptake); format: cell-based; details: Homo sapiens, HT-29 cells, 3 days incubation
Description: Compounds may be assayed for the inhibition of ERK2 by a cell proliferation assay. In this assay, a complete media is prepared by adding 10% fetal bovine serum and penicillin/streptomycin solution to RPMI 1640 medium (JRH Biosciences). Colon cancer cells (HT-29 cell line) are added to each of 84 wells of a 96 well plate at a seeding density of 10,000 cells/well/150 μL. The cells are allowed to attach to the plate by incubating at 37° C. for 2 hours. A solution of test compound is prepared in complete media by serial dilution to obtain the following concentrations: 20 μM, 6.7 μM, 2.2 μM, 0.74 μM, 0.25 μM, and 0.08 μM. The test compound solution (50 μL) is added to each of 72 cell-containing wells. To the 12 remaining cell-containing wells, only complete media (200 μL) is added to form a control group in order to measure maximal proliferation. To the remaining 12 empty wells, complete media is added to form a vehicle control group in order to measure background. The plates are incubated at 37° C. for 3 days. A stock solution of ^3H-thymidine (1 mCi/mL, New England Nuclear, Boston, Mass.) is diluted to 20 μCi/mL in RPMI medium then 20 μL of this solution is added to each well. The plates are further incubated at 37° C. for 8 hours then harvested and analyzed for ^3H-thymidine uptake using a liquid scintillation counter.

activated ERK2, sequence (P28482 whole entry): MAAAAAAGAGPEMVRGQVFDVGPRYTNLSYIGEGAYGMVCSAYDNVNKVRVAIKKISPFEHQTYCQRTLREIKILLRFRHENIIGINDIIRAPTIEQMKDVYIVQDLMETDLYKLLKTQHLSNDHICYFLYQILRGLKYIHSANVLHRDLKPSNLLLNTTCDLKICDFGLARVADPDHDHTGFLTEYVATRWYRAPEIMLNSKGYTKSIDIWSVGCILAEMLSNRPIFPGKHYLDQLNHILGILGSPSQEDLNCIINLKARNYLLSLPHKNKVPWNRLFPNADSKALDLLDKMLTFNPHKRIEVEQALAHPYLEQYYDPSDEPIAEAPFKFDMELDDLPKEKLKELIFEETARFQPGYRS

Compound | Ki (activated ERK2) [µM] | inhibit AKT (AKT) | IC50 [1] [µM]
O=C(N[C@H](CO)c1ccc(F)c(Cl)c1)c1cc(-c2n[nH]cc2-c2ccc(CNCc3cc[n+]([O-])cc3)c(Cl)c2)c[nH]1 [II-8] | < 1 | inhibit AKT | –
O=C(NCc1ccccc1)c1cc(-c2[nH]ncc2-c2cccc(CN3CCOCC3)c2)c[nH]1 [II-10] | > 5 | – | –
CC(=O)N1CCC[C@@H]1C(=O)NCc1ccc(-c2cn[nH]c2-c2c[nH]c(C(=O)NC(CO)c3ccc(F)c(Cl)c3)c2)cc1Cl (some centres unmarked) [II-4] | < 1 | – | –
CC(=O)N1C[C@H](O)C[C@H]1C(=O)NCc1ccc(-c2c[nH]nc2-c2c[nH]c(C(=O)N[C@H](CO)c3ccc(F)c(Cl)c3)c2)cc1Cl (stereo in doubt) [II-2, 4-[4-(4-{[(1-Acetyl-4-hydroxy-pyrrolidine-2-carbonyl)-amino]-methyl}-3-chloro-phenyl)-1H-pyrazol-3-yl]-1H-pyrrole-2-carboxylic acid [1-(3-chloro-4-fluoro-phenyl)-2-hydroxy-ethyl]-amide] | < 1 | – | –
O=C(N[C@H](CO)c1ccccc1)c1cc(-c2[nH]ncc2-c2ccc(C(=O)N3CCOCC3)c(Cl)c2)c[nH]1 [II-1] | < 1 | – | < 10
O=C(N[C@H](CO)c1ccc(F)c(Cl)c1)c1cc(-c2n[nH]cc2-c2ccc(CN(Cc3cc[n+]([O-])cc3)Cc3cc[n+](O)cc3)c(Cl)c2)c[nH]1 [II-9, 4-[4-(4-{[Bis-(1-oxy-pyridin-4-ylmethyl)-amino]-methyl}-3-chloro-phenyl)-1H-pyrazol-3-yl]-1H-pyrrole-2-carboxylic acid [1-(3-chloro-4-fluoro-phenyl)-2-hydroxy-ethyl]-amide] | < 1 | – | –
O=C(N[C@H](CO)c1ccc(F)c(Cl)c1)c1cc(-c2n[nH]cc2-c2ccc(CN3CCOCC3)c(Cl)c2)c[nH]1 [II-6, 4-[4-(3-Chloro-4-morpholin-4-ylmethyl-phenyl)-1H-pyrazol-3-yl]-1H-pyrrole-2-carboxylic acid [1-(3-chloro-4-fluoro-phenyl)-2-hydroxy-ethyl]-amide] | < 1 | inhibit AKT | < 10
O=C(NCc1ccc(-c2cn[nH]c2-c2c[nH]c(C(=O)N[C@H](CO)c3ccc(F)c(Cl)c3)c2)cc1Cl)O[C@H]1CCOC1 [II-7] | < 1 | – | –
CC(=O)N1CCC[C@H]1C(=O)NCc1ccc(-c2cn[nH]c2-c2c[nH]c(C(=O)NC(CO)c3ccc(F)c(Cl)c3)c2)cc1Cl (some centres unmarked) [II-3] | < 1 | – | –
O=C(CCCCCNc1ccc([N+](=O)[O-])c2nonc12)NCc1ccc(-c2cn[nH]c2-c2c[nH]c(C(=O)N[C@H](CO)c3ccc(F)c(Cl)c3)c2)cc1Cl [II-5] | < 1 | – | –
